Assay results reported in ChEMBL document CHEMBL3046379, “Differential activity against aphid settling of flavones obtained from Clytostoma callistegioides (Bignoniaceae)” (2013).

Tests used:
Type in all cases: functional
Myzus persicae [1] = assay: Anti-settling activity against Myzus persicae (green peach aphid) in compound treated bell pepper leaf assessed as aphids settled on leaf at 50 ug/cm'2 measured 24 hr (reference value: 52 +/- 7 to 75 +/- 4%)
Rhopalosiphum padi [2] = assay: Anti-settling activity against Rhopalosiphum padi in compound treated barley [Hordeum vulgare L. (Poaceae)] foliage leaf assessed as preference index at 50 ug/cm'2 measured 24 hr
Myzus persicae [3] = assay: Anti-settling activity against Myzus persicae (green peach aphid) in compound treated bell pepper leaf assessed as preference index at 50 ug/cm'2 measured 24 hr
Rhopalosiphum padi [4] = assay: Anti-settling activity against Rhopalosiphum padi in compound treated barley [Hordeum vulgare L. (Poaceae)] foliage leaf assessed as aphids settled on leaf at 50 ug/cm'2 measured 24 hr (reference value: 55 +/- 4 to 90 +/- 3%)

SMILES	Activity (Myzus persicae [1]) [%]	Ratio (Rhopalosiphum padi [2])	Ratio (Myzus persicae [3])	Activity (Rhopalosiphum padi [4]) [%]
COc1ccc(-c2cc(=O)c3c(O)cc(O)c(OC)c3o2)cc1 [GALANGUSTIN]	29	0.8	0.4	10
COc1c(O)cc(O)c2c(=O)cc(-c3ccc(O)cc3)oc12 [4'-HYDROXYWOGONIN]	48	0.1	0	44
COc1ccc(-c2cc(=O)c3c(O)cc(O)cc3o2)cc1 [ACACETIN]	44	0.3	0.1	34
